Experiment: sorption/desorption (DVS) behaviour: phase transition of the hydrate-forming agent L-arginine
Assay type: physicochemical
Source text: DVS measurement: measurement of the water absorption of a sample as a function of relative humidity and temperature using a highly sensitive sorption scale.
Phase transition in hydrate-forming active substances or adjuvants: the relative humidity at which the hydrate-forming agent water (particularly water of crystallization) is incorporated and changes from an anhydrate or a lower-valency form into a higher valency hydrate form, or vice versa. This relative humidity is characteristic of the respective hydrate-forming agent; if a hydrate-forming agent incorporates water in several steps, there are several phase transitions in this substance. For example: phase transition for pure L-arginine: 38% r.h./25° C. with incorporation of about 1.5 mol of water per 1 mol of L-arginine; in mixtures comprising L-arginine the phase transition is typically between 38 and 40% r.h./25° C., but in the test formulation described herein by way of example it starts, at latest, at 40% r.h./25° C.
(sorption and desorption cycle; change water content vs. rel. humidity). Tablets produced from tabletting material pre-conditioned at 25° C./45% r.h. were subsequently stored in very different humidity ranges (arrows; for discussion of the cases 1-4 see the description herein).

For N=C(N)NCCC[C@H](N)C(=O)O [L-arginine], the “phase transition (relative humidity at which water of crystallization is incorporated), sorption cycle” value (25° C.) was 38 % r.h, the “phase transition in the desorption cycle (release of water of crystallisation)” value (25° C.) was < 30 % r.h and the “water incorporated at phase transition” value (38% r.h./25° C.) was “about 1.5 mol of water per 1 mol of L-arginine”. For the same compound, the “relative humidity to ensure the phase transition, sorption cycle” value (at 40° C.) was “about 47 % r.h”.

Source: patent US20170095423A1, “Use of selectively moisture-adjusted tabletting material in the production of mechanically stable tablets which contain at least one hydrate-forming active substance and/or adjuvant relevant to the mechanical stability of the tablets, particularly arginine-containing tablets” (Boehringer Ingelheim International GmBH, priority 2012, published 2017)
